In PubChem BioAssay AID179 (DTP/NCI, 2004):
Values joined by “and” are separate entries in the source; they are usually repeats but may differ in a detail not shown here. Equal entries are not always repeated. Active and inactive are the calls of the source.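 Rule for the calls: active = compounds giving half or more protection of infected cells from virus-caused growth loss, again on retest; inactive = the rest.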

Tested on: CEM cells HIV-1 protection, formazan growth assay
Assay: NCI AIDS Antiviral Assay
Details: for IC50: measured here: growth of uninfected CEM cells
Method in brief: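 Protection of CEM cells against HIV-1 measured as cell growth via soluble formazan read-out, with five concentrations tested on both infected and uninfected cells; failure to protect may reflect toxicity.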

Row | SMILES | EC50 | IC50 | outcome
1 | CCCCCCCC1=NN(c2ccc(S(=O)(=O)O)cc2)C(=O)C1N=O (configuration not stated) | > 200 µM | > 200 µM | 
2 | COc1ccc(-n2c(C)nc3ccc(N=Cc4ccccc4)cc3c2=O)cc1 | > 200 µM | > 200 µM | 
3 | COc1ccc(NC(=S)N/N=C/c2c(C)n(C)n(-c3ccccc3)c2=O)cc1 | > 200 µM | 115 µM | 
4 | O=C1/C=C/C(=O)OCCCC(=O)/C=C/C(=O)OCCC1 |  |  | inactive
5 | CC1OC(O[C@H]2C3C=CO[C@@H](OC4OC(CO)C(O)C(O)C4O)C3[C@@]3(COC(=O)/C=C/c4ccc(O)cc4)O[C@@H]23)C(O)C(O)C1O (some centres not stated) | > 200 µM | > 200 µM | 
6 | Cc1cn([C@H]2C[C@](C)(CO)N(C)O2)c(=O)[nH]c1=O | > 200 µM | > 200 µM | 
7 | COc1cccc2c1ccc1nonc12 | > 129 µM | > 129 µM | 
8 | Cc1ccc(C(=O)Nc2ccccc2)cc1N=NN(C)C | > 331 µM | 288 µM | 
9 | CCC1CCN=C(Cn2cc(C)c(=O)[nH]c2=O)N1 (configuration not stated) | > 200 µM | > 200 µM | 
10 | CC(C)Cc1nc(-c2cc3ccccc3[nH]2)c(CC(C)C)nc1-c1cc2ccccc2[nH]1 | > 4.68 µM | > 4.68 µM | 
11 | O=C1OC(c2cccc3ccccc23)c2ccccc21 (configuration not stated) | > 501 µM | 26.3 µM | 
12 | O=C(/C=C/c1cccs1)c1ccsc1 | > 200 µM | 11.7 µM | 
13 | COC(=O)C1=CO[C@@H](C)[C@H]2CN3CC[C@]4(C(=O)Nc5ccccc54)[C@@H]3C[C@H]12 | > 200 µM | > 200 µM | 
14 | CCOC(=O)c1cc2c(cn1)[nH]c1cccc(N)c12 | > 263 µM | > 263 µM | 
15 | CCCCN1C(=O)C2c3[nH]c4ccccc4c3C3CCCCC3C2C1=O (mixture of isomers) |  |  | inactive
16 | CN(C)C=Nc1cccc2c1NSN2 | > 200 µM | > 200 µM | 
17 | Cn1cnc(N)c(N=O)c1=O | > 200 µM | > 200 µM | 
18 | Nc1ccc(C(=O)NN2C(=O)C(Cl)C2c2cc(Br)cc(Br)c2O)cc1 (configuration not stated) | > 200 µM | 15.5 µM | 
19 | O=c1[nH]c(=O)c2ncn(-c3ccc([N+](=O)[O-])cn3)c2[nH]1 |  |  | inactive
20 | CC(=O)N(CN1C(=O)CCC1C(=O)O)c1ccccc1Cl (configuration not stated) |  |  | inactive
21 | COC(=O)C(C)(C)C(OP1(=S)OCCN1C)=C(C)C (configuration not stated) | > 117 µM | > 117 µM | 
22 | Oc1c(C2=NNC(c3ccc(Cl)cc3Cl)C2)ccc2ccccc12 (configuration not stated) | > 200 µM | 32.4 µM | 
23 | CC1=NN=C(N)NC1=CC(Sc1ccc(Cl)cc1)c1c(O)ccc2ccccc12 (configuration not stated) | > 200 µM | 11.2 µM | 

Row | SMILES | EC50 | IC50 | outcome
24 | CCc1nc2ccc(N=Nc3c(O)ccc4ccccc34)cc2[nH]1 | > 58.9 µM | 24.5 µM | 
25 | ClC[Si]12OCCN(CCO1)CCO2 |  |  | inactive
26 | O=C(CI)Nc1ccc2oc(=O)c(C(=O)O)cc2c1 | > 214 µM | 23.4 µM | 
27 | COc1ccc2[nH]c3c(C)c4ccnc(NCCCN(C)CCCNc5ccc([N+](=O)[O-])c6[nH]c7ccccc7c(=O)c56)c4c(C)c3c2c1 | > 0.0501 µM | 0.0257 µM | 
28 | COc1cccc(/C=N/NC(=O)c2ccccc2[O-])c1[O-].[Cu+2].[OH3+] | > 200 µM | > 200 µM | 
29 | O=c1[nH]cnc2c1ncn2[C@@H]1C[C@H]1CO |  |  | inactive
30 | COc1ccc2c(c1)OCC1(O)Cc3ccccc3OC21 (configuration not stated) | > 200 µM | 107 µM | 
31 | O=C(NCCCOC(=O)CCCCCCCCC(=O)OCCCNC(=O)NC(=O)c1c[nH]c(=O)[nH]c1=O)NC(=O)c1c[nH]c(=O)[nH]c1=O | 214 µM | 263 µM | 
32 | CC1CCCN(CC(O)CN2CCN(CC(O)CN3CCCC(C)C3)C(C)C2)C1 (configuration not stated) | > 316 µM | > 316 µM | 
33 | CCOC(=O)c1nc2ccc(C(F)(F)F)cc2nc1Oc1cc(OC)c(OC)c(OC)c1 | > 100 µM | > 100 µM | 
34 | C=CC(=O)N1C/C(=C\c2ccc(OC)cc2)C(=O)/C(=C/c2ccc(OC)cc2)C1 | 0.2 µM | 2.4 µM | 
35 | Cc1cccc(C)c1NC(=O)CCCC(=O)CC(=O)/C=C/c1ccccc1 | > 501 µM | > 501 µM | 
36 | Cc1c(CN)c(C)c(CN)c(C)c1CN | > 200 µM | 97.7 µM | 
37 | O=[N+]([O-])c1ccc(Cl)cc1C=NC12CC3CC(CC(C3)C1)C2 | > 200 µM | 11.5 µM | 
38 | Cc1cn(C2C/C(=N\O)C(CO)O2)c(=O)[nH]c1=O (configuration not stated) | 12.6 µM | 174 µM | 
39 | O=C1OC2(C(F)(F)F)Oc3ccccc3CN2C12CCCCC2 (configuration not stated) | > 200 µM | 115 µM | 
40 | COc1ccc(CCC2c3cc(OC)c(OC)cc3CCN2C)cc1OC (configuration not stated) | > 676 µM | 240 µM | 
41 | NC(CS)=NC1CCCCC1 | > 200 µM | 107 µM | 
42 | OCc1cc2c(cc1CO)OCC2 |  |  | inactive
43 | O=C1CC(c2ccc[nH]2)=NN1c1ccccc1 | > 200 µM | 83.2 µM | 
44 | Nc1cc(Nc2ccc(Cl)[nH]c2=S)nc(N)n1 | > 186 µM | 5.75 µM | 
45 | O=C(O)CC1CCN(C(=O)c2ccccc2)C(Cc2c[nH]c3ccccc23)C1O (configuration not stated) | > 126 µM | > 126 µM | 
46 | COC(=O)CCNc1c2ccccc2nc2cccc([N+](=O)[O-])c12 | > 0.2 µM | 0.0794 µM | 

Row | SMILES | EC50 | IC50 | outcome
47 | CC(C)(C)OC(=O)N/N=C(/N)Cc1ccc(Cl)cc1 | > 200 µM | 162 µM | 
48 | CCCCCCCCCCCCCCCCOC(=O)C(C(=O)OCCCCCCCCCCCCCCCC)[N+](C)(C)CCOC(C)=O |  |  | inactive
49 | CC(C)OC(=O)OCSc1ccccc1N=Cc1cccc([N+](=O)[O-])c1 | > 200 µM | 38 µM | 
50 | COc1cc2c(oc(=O)c3c4occc4cc(OC)c23)c2cccc(O)c12 | > 1.45 µM | > 1.45 µM | 
51 | O=C(c1ccccc1)N1CCCCC(Cl)C1=O (configuration not stated) | > 1000 µM | > 1000 µM | 
52 | OC1CN=C2C=CC=CN2C1 (configuration not stated) | > 200 µM | > 200 µM | 
53 | Oc1ccccc1/C=N/N1C(=S)N(c2ccccc2)C(=Nc2ccccc2)C1=Nc1ccccc1 | > 20 µM | 1.29 µM | 
54 | CC(=O)OC1CCC23COC(CC(C)C2C)C3(Cl)C1 (configuration not stated) | > 200 µM | > 200 µM | 
55 | NC(=O)C1(c2ccccc2)Nc2ccccc2S1 (configuration not stated) | > 977 µM | 102 µM | 
56 | c1ccc2c(c1)nnn2CNc1ccc(N2CCOCC2)cc1 | > 200 µM | 51.3 µM | 
57 | O=C(O)C(CS(=O)(=O)O)Nc1ccc([N+](=O)[O-])cc1[N+](=O)[O-] (configuration not stated) | > 692 µM | > 692 µM | 
58 | CSc1n[nH]c(N)c1C(=O)Nc1ccccc1 | > 186 µM | 117 µM | 
59 | COC(=O)c1c2c(n(CCO)c1OC)C(=O)c1ccccc1C2=O | > 200 µM | 81.3 µM | 
60 | S=C1Nc2cnc3ccccc3c2SC1c1ccccc1 (configuration not stated) | > 200 µM | 56.2 µM | 
61 | C=CCNC(=S)NC=C(C(N)=O)C(N)=O | > 200 µM | > 200 µM | 
62 | COC(=O)c1ccc2c(c1)CC1(C2)Cc2cc3c(c(C(=O)OC)c2C1)CCCC3 (configuration not stated) | > 200 µM | > 200 µM | 
63 | CN1CCN(C(=O)/N=N\C(=O)N2CCN(C)CC2)CC1 | > 200 µM | > 200 µM | 
64 | COC1CC(CC2CCC(C)C(C(C)C(=O)O)O2)OC2(OC(C)(C3CCC(C)(C4OC(C5OC(O)(CO)C(C)CC5C)CC4C)O3)CC2C)C1C (configuration not stated) | 0.0575 µM | 0.537 µM | 
65 | Cc1ccc(S(=O)(=O)/N=S(\C)c2cccc(Cl)c2)cc1 (configuration not stated) | > 200 µM | 170 µM | 
66 | CC[C@@]1(OS(=O)(=O)O)CCC2C3CC=C4CC(O)CC[C@]4(C)C3CC[C@@]21C (some centres not stated) | 107 µM | 224 µM | 
67 | N#C[C@H](c1ccccn1)c1nc2ccccc2nc1Cl | > 200 µM | 115 µM | 
68 | CCOC(=O)CSc1nc(-c2ccc(Cl)cc2)c(C#N)c(=O)[nH]1 | > 200 µM | 93.3 µM | 
69 | Cc1cn(C2CC3C(COC(C)N3O)O2)c(=O)[nH]c1=O (configuration not stated) | > 200 µM | > 200 µM | 

Row | SMILES | EC50 | IC50 | outcome
70 | COc1cccc(NC(=O)CC(=O)N2N=C(n3ccc4ccccc43)CC2c2ccccc2)c1 (configuration not stated) |  |  | inactive
71 | CC/C(CC(=O)CCC(=O)Nc1ccccc1[N+](=O)[O-])=N/NC(=O)C[n+]1ccccc1 | > 25.7 µM | > 25.7 µM | 
72 | CC1(C)CC(Br)(Cc2ccccc2)C(=O)c2ccccc21 (configuration not stated) | > 200 µM | 7.94 µM | 
73 | O=C1CCC2c3[nH]c4ccccc4c3CCN12 (configuration not stated) | > 200 µM | 186 µM | 
74 | O=C(O)C1OC(Oc2ccc3oc4ccccc4c(=O)c3c2)C(O)C(O)C1O (configuration not stated) | > 174 µM | 145 µM | 
75 | Brc1ccc(C[N+]23CCN(CC2)CC3)cc1 | > 692 µM | > 692 µM | 
76 | COc1ccc2nc3cccc([N+](=O)[O-])c3c(NCCNCCN(C)C)c2c1 | > 2 µM | 0.105 µM | 
77 | CC(=O)OC1COC(Nc2nc(NCc3ccccc3)n(C)c(=O)c2N=O)C(OC(C)=O)C1OC(C)=O (configuration not stated) | > 200 µM | > 200 µM | 
78 | Nc1nn2cc3c(nc2c1N=Nc1ccccc1)CCC3 | > 200 µM | > 200 µM | 
79 | COc1ccc2[nH]cc([C@@H]3C4CCC(C4)[C@H]3NCc3cccc(CN[C@H]4C5CCC(C5)[C@@H]4c4c[nH]c5ccc(OC)cc45)c3)c2c1 | > 2 µM | 0.324 µM and 0.617 µM | 
80 | O=S(=O)(O)CC(O)CCl (configuration not stated) | > 200 µM | > 200 µM | 
81 | COc1ccc(/C=C(\C2=NC(=O)CS2)c2nc3ccccc3[nH]2)cc1 | > 20.9 µM | > 20.9 µM | 
82 | CC(C)COC(=O)Sc1ccccc1C(=O)NC(C)C(N)=O (configuration not stated) | 1.1 µM | 115 µM | 
83 | O=C1c2ccccc2CC12Cc1ccc3c(c1C2)CCC3 (configuration not stated) | > 200 µM | 89.1 µM | 
84 | O=C1c2ccccc2C(=O)N1Cc1ccccc1 | > 200 µM | > 200 µM | 
85 | O=[N+]([O-])c1ccc(Cc2ccc([N+](=O)[O-])cc2)cc1 | > 28.2 µM | > 28.2 µM | 
86 | COC(=O)/C=C/c1cc2c(cc1-c1c(C(=O)O)cc(OC)c(OC)c1OC)OCO2 | > 603 µM | > 603 µM | 
87 | COc1cc2noc(-c3ccccc3)c2cc1OC |  |  | inactive
88 | Cc1ncc(CC#N)c2c1OC(C)(C)OC2 | > 1150 µM | > 1150 µM | 
89 | Nc1nc2n[nH]nc2c(=O)[nH]1 | > 89.1 µM | 0.302 µM | 
90 | C=C(Br)C[N+]12CN3CN(CN(C3)C1)C2 | > 200 µM | 55 µM | 
91 | C=C(C)[C@@]1(O)CCC[C@H]1NC(=O)OC(C)(C)C | > 200 µM | > 200 µM | 
